Here are results for 4 molecules from patent US20080176261A1, “Colorimetric Substrate and Methods for Detecting Poly(ADP-ribose) Polymerase Activity including PARP Enzymes PARP-1, VPARP, and Tankyrase-1” (THE BOARD OF TRUSTEES OF THE UNIVERSITY OF ILLINOIS, priority 2007, published 2008).

Data set [1] relates to T1, Nc1ncnc2c1ncn2[C@@H]1O[C@H](COP(=O)(O)OP(=O)(O)OC[C@H]2O[C@@H](Oc3ccc([N+](=O)[O-])cc3)C(O)C2O)C(O)C1O.
T1 construct: purchased Trevigen
The data set can be described thus: Continuous colorimetric PARP kinetic assay with ADP-ribose-pNP, PARP-1. It counts as biochemical. As to conditions: other: PARP-1 activated with DNase digested DNA; substrate ADP-ribose-pNP; 405 nm; pH 8.0. Here is the method: (§1) With the calorimetric substrate ADP-ribose-pNP in hand, a continuous calorimetric assay for PARP activity was developed and the kinetic parameters for three PARP isozymes were determined. In a 96-well plate, a range of concentrations of ADP-ribose-pNP in PARP assay buffer were incubated with either PARP-1 (DNase digested DNA was added to activate PARP-1), tankyrase-1 (refers to “active domain,” see Supporting Information), or VPARP (also refers to the “active domain”), and the optical density at 405 nm was measured every 60 seconds over a 2 hour time period. Change in absorbance was assessed in triplicate, and blanks containing 0 to 700 μM ADP-ribose-pNP in PARP assay buffer were also measured over the same time period. The absorbance of a range of p-nitrophenol concentrations was determined at 405 nm, and the slope of this calibration curve (see Supporting Information) was used to convert the absorbencies to moles of product generated; in this way the kinetic parameters for PARP-1, tankyrase-1, and VPARP were calculated (see Table 1 and FIG. 2).
Preparation of damaged DNA for PARP-1. 500 μL of Herringsperm DNA (10 mg/ml) was added to 100 mL DNase buffer (400 mM Tris-HCl, 100 mM MgSO4, and 10 mM CaCl2, pH 8.0), along with 50 μL of DNase (1 unit/mL). This solution was first incubated at 37° C. for 1 minute and then heated at 90° C. for 20 minutes to inactivate the DNase. Damaged DNA was used without any further purification.
Kinetics of PARP-1. A 160 μL volume of PARP-1 (0.45 mg/mL) was premixed with 262.4 μL of the damaged herringsperm DNA and 2777.6 μl of PARP assay buffer. This mixture (known as activated PARP in assay buffer) was allowed to equilibrate on ice for 4 hours. The ADP-ribose-pNP colorimetric substrate was diluted from a 5000 μM stock in PARP assay buffer directly into the wells of a 96 well plate. […] The plate was then read on a SpectraMax plus UV/Vis plate reader (Molecular Devices), at 405 nm for 2 hours, reading once every minute with mixing between reads.
(§2) Data analysis. […] Graphs were analyzed using Table Curve 2D.

Data set [2] has as its target T2, VPARP (Homo sapiens, UniProt Q9UKK3).
T2 construct: The plasmid with the catalytic domain of VPARP, pET28b-p193cat; made in house; host or cells: E. coli Rosetta
T2 sequence (Q9UKK3 369-573 limits assumed): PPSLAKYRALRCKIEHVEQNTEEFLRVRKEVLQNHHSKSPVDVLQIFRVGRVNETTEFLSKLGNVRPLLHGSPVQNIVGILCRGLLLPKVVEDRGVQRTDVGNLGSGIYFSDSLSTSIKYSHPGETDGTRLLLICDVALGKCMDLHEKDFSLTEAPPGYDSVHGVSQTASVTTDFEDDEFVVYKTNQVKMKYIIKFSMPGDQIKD
The data set can be described thus: Continuous colorimetric PARP kinetic assay with ADP-ribose-pNP, VPARP active domain. It counts as biochemical. As to conditions: substrate ADP-ribose-pNP, 405 nm. The protocol: (§3) With the calorimetric substrate ADP-ribose-pNP in hand, a continuous calorimetric assay for PARP activity was developed and the kinetic parameters for three PARP isozymes were determined. In a 96-well plate, a range of concentrations of ADP-ribose-pNP in PARP assay buffer were incubated with either PARP-1 (DNase digested DNA was added to activate PARP-1), tankyrase-1 (refers to “active domain,” see Supporting Information), or VPARP (also refers to the “active domain”), and the optical density at 405 nm was measured every 60 seconds over a 2 hour time period. Change in absorbance was assessed in triplicate, and blanks containing 0 to 700 μM ADP-ribose-pNP in PARP assay buffer were also measured over the same time period. The absorbance of a range of p-nitrophenol concentrations was determined at 405 nm, and the slope of this calibration curve (see Supporting Information) was used to convert the absorbencies to moles of product generated; in this way the kinetic parameters for PARP-1, tankyrase-1, and VPARP were calculated (see Table 1 and FIG. 2). […]
(§4) The plate was divided in half with protein added to half the wells and the other half serving as blanks containing only PARP assay buffer and substrate. […] The plate was then read on a SpectraMax plus 384 UV/Vis plate reader (Molecular Devices), at 405 nm for 2 hours with observations performed once every minute. […]

Data set [3] addresses T3, PARP-1 (Homo sapiens, UniProt P09874). As to the kind of experiment: Continuous colorimetric PARP kinetic assay with ADP-ribose-pNP, PARP-1. Also on record: purchased Trevigen. Type of data set: biochemical. Here is the method:
as §1
Preparation of damaged DNA for PARP-1. […]
Kinetics of PARP-1. […] The plate was then read on a SpectraMax plus UV/Vis plate reader (Molecular Devices), at 405 nm for 2 hours, reading once every minute with mixing between reads.
as §2

Data set [4] deals with bovine serum albumin (Bos taurus, UniProt P02769). As to the kind of experiment: Control experiment with BSA (non-specific substrate cleavage). It counts as biochemical. Conditions: 20 μM BSA, monitored 2 hours. Here is the method:
While exact kinetic parameters for PARP-1 can vary with the assay used, for PARP-1 the KM value with ADP-ribose-pNP is consistent with that of the natural β-NAD^+ substrate, while the Vmax is approximately 100 fold lower with the calorimetric substrate (see Table 1). […] To our knowledge, no data is available on the kinetic parameters of VPARP with β-NAD^+.
Control experiment with BSA. To determine that substrate cleavage is specific to the PARP family of enzymes, 16 μL of BSA was added to 81.5 μL of PARP assay buffer in a 96 well plate so that the final concentration was 20 μM in protein. The experiment was performed in triplicate along with controls that contained PARP assay buffer only. To both the wells containing only buffer or buffer and BSA, 2.5 μL of a 10 mM stock of the substrate was added to start the reaction. The plate was monitored at 405 nm for 2 hours.

For data set [5], the target named is T4, tankyrase-1 (Homo sapiens, UniProt O95271).
T4 construct: The SAM and PARP domain of tankyrase was subcloned into pGEX-5X-1; made in house; host or cells: E. coli Rosetta
T4 sequence (O95271 1030-1327): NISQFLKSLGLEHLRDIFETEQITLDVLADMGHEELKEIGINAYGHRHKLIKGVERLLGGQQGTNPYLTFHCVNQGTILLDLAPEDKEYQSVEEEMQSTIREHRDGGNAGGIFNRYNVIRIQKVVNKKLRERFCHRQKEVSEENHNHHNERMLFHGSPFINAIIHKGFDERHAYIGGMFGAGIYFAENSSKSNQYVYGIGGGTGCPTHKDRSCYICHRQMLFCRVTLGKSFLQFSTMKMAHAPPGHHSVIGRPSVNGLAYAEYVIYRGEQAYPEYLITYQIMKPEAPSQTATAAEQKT
The data set can be described thus: Continuous colorimetric PARP kinetic assay with ADP-ribose-pNP, tankyrase-1 active domain. It counts as biochemical. The protocol:
as §1
Kinetics of VPARP and Tankyrase-1. The ADP-ribose-pNP colorimetric substrate was diluted from a 10 mM stock in PARP assay buffer to 1142.9 μM. From this stock, dilutions into PARP assay buffer were made in 15×1.7 mL tubes so that the volume was 490 μL. This was enough to perform the experiment in triplicate, with additional wells (no protein) to serve as blanks for each substrate concentration. The concentration of substrate in each tube was made such that 70 μL from each tube could be added to the wells of a 96 well plate. When each well was brought to the final volume of 100 μL, the desired final concentration was reached. See FIG. 2B and FIG. 5B for tank-ad and VPARP substrate concentrations, respectively. Concentrations ranged from 0 to 700 μM with a finer distribution at lower substrate concentrations.
The plate was divided in half with protein added to half the wells and the other half serving as blanks containing only PARP assay buffer and substrate. After adding 70 μL of substrate from each tube to 3 wells on the protein side or 3 wells of the blank side, 30 μL of PARP assay buffer was added to all the wells of the blank side. Next, 30 μL of the enzyme was added to each of the wells on the protein half of the plate to initiate the reaction, with a final concentration of tankyrase per well of 21.8 μM and the final concentration of VPARP per well of 19.8 μM. The plate was then read on a SpectraMax plus 384 UV/Vis plate reader (Molecular Devices), at 405 nm for 2 hours with observations performed once every minute. Mixing was conducted between observations.
as §2

Data set [6] concerns the target T3, PARP-1. The arrangement: purchased Trevigen. As to conditions: PARP-1 literature, natural β-NAD+ substrate; cited from earlier work.
For data set [7], the target named is T5, tankyrase-1 (Homo sapiens, UniProt O95271).
T5 sequence (O95271 1-1327): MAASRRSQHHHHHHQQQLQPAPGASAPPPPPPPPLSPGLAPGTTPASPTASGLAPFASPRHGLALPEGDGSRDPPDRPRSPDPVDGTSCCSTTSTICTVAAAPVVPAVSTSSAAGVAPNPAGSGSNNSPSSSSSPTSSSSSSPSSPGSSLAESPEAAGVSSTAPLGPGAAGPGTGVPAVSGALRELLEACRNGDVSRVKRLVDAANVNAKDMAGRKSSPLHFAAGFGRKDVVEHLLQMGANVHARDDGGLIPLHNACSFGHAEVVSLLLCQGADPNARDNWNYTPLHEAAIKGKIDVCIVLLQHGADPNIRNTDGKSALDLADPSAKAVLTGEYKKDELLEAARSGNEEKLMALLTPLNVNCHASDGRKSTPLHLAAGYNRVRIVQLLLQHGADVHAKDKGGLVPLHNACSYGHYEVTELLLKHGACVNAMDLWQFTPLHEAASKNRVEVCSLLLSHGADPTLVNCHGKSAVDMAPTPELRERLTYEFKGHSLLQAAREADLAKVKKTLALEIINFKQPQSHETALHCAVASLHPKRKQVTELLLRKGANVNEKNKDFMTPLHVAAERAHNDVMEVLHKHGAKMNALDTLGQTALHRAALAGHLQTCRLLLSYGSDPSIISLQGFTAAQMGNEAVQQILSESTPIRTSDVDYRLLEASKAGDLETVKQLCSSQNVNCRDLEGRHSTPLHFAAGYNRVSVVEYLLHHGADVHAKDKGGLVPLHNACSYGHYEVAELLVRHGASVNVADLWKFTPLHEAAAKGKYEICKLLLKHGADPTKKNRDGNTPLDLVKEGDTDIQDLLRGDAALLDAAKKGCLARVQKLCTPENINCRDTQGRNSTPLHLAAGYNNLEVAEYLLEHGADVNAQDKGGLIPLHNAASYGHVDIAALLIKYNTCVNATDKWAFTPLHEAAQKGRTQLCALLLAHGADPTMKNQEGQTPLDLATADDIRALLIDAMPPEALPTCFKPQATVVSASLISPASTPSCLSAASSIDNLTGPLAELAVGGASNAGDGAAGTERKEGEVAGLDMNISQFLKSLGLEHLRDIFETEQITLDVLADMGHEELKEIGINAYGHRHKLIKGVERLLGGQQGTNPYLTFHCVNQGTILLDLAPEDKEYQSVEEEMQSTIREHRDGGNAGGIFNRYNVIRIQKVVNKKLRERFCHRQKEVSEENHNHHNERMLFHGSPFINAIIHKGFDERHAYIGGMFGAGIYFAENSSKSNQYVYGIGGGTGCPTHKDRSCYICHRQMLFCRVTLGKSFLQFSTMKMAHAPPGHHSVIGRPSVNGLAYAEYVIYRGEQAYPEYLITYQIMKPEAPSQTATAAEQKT
As to conditions: tankyrase-1 literature, β-NAD+ as substrate; cited from earlier work.

Substrate in data set [8]: Nc1ncnc2c1ncn2[C@@H]1O[C@H](COP(=O)(O)OP(=O)(O)OC[C@H]2O[C@@H](Oc3ccc([N+](=O)[O-])cc3)C(O)C2O)C(O)C1O
As to the kind of experiment: Continuous colorimetric PARP kinetic assay with ADP-ribose-pNP, VPARP active domain. It counts as biochemical. Conditions: other: VPARP active domain; substrate ADP-ribose-pNP; 405 nm. The protocol: as §3, §4

The mark [9] stands for this setting: tankyrase-1, versus literature values.
[10] abbreviates: tankyrase-1 active domain, substrate ADP-ribose-pNP, 405 nm.

Like-named read-outs stand apart in the source and are kept apart here.

T3 sequence (P09874 whole entry): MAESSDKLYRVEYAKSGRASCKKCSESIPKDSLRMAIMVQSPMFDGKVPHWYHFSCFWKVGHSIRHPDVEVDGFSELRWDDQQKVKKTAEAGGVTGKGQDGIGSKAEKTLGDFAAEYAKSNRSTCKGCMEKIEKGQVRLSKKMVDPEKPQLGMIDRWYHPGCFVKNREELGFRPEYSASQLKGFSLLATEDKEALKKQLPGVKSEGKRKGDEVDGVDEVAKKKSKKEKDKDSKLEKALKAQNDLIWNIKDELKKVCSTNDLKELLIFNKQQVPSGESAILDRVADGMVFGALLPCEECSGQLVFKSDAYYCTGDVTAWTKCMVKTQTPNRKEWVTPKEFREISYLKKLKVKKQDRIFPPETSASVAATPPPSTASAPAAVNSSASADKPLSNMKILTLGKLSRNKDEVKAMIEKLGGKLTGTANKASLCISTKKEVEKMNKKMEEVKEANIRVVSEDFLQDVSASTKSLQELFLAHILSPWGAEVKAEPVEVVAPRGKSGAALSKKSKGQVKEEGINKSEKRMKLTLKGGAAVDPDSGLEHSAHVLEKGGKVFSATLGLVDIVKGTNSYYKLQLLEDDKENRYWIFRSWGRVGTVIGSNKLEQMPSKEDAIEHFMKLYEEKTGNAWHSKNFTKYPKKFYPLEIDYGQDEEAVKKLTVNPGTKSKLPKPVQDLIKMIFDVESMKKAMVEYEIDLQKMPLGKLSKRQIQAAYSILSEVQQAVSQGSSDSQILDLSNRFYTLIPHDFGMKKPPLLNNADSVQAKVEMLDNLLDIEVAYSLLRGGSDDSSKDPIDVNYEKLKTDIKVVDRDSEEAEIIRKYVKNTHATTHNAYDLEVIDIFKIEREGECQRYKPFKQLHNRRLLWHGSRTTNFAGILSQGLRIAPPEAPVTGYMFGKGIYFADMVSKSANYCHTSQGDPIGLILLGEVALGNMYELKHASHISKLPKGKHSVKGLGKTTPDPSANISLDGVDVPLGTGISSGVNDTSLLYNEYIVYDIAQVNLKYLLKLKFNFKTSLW
Chain of bovine serum albumin (P02769 25-607): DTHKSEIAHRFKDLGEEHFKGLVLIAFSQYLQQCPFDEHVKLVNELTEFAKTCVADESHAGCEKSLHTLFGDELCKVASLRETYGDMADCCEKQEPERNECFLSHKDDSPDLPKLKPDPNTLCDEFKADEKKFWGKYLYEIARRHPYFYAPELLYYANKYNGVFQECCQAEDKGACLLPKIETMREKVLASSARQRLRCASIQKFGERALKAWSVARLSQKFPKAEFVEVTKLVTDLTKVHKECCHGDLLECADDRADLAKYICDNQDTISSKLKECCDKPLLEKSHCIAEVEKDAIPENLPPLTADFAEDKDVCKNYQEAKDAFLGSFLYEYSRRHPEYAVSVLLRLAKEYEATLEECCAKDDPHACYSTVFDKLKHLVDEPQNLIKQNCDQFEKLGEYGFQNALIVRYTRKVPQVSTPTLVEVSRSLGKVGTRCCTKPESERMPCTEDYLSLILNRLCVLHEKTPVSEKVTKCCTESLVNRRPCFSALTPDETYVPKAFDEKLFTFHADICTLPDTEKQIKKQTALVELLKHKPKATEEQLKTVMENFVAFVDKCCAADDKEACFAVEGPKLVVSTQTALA

Regarding PARP-1 (Homo sapiens), in data set [1], the Km is 151 µM, the Vmax stood at 0.0013 µmol/min/mg and the kcat turned out to be 0.025 s⁻¹.
In the case of `Nc1ncnc2c1ncn2[C@@H]1O[C@H](COP(=O)(O)OP(=O)(O)OC[C@H]2O[C@@H](Oc3ccc([N+](=O)[O-])cc3)C(O)C2O)C(O)C1O` (stereo partly shown) [ADP-ribose-pNP], in data set [2], the Vmax came to 2.03e-06 µmol/min/mg. In addition, the “Vmax fold lower with colorimetric substrate than with natural β-NAD+ substrate” value in data set [3] (PARP-1, versus literature values) is listed as “approximately 100 fold”. Moreover, the Vmax in data set [3] (PARP-1 activated with DNase digested DNA, substrate ADP-ribose-pNP, 405 nm) stood at 0.0013 µmol/min/mg. The “signal at 405 nm on incubation with bovine serum albumin” value in data set [4] was “no signal”. For the same molecule, in data set [5] (setting [9]), the “KM fold lower than literature value with β-NAD+ as substrate” value was “approximately 18 fold” and the “Vmax compared to literature values with β-NAD+ as substrate” value is “significantly lower”. In addition, in data set [5] (setting [10]), the Km turned out to be 82 µM, the Vmax was found to be 1.81e-05 µmol/min/mg and the kcat was determined as 1.88e-05 s⁻¹.
As to `NC(=O)c1ccc[n+]([C@@H]2O[C@H](COP(=O)([O-])OP(=O)(O)OC[C@H]3O[C@@H](n4cnc5c(N)ncnc54)[C@H](O)[C@@H]3O)[C@@H](O)[C@H]2O)c1` [β-NAD^+, nicotinamide adenine dinucleotide], in data set [6], the Km is 59 to 278 µM, the Vmax was 0.2 to 2.4 µmol/min/mg and the kcat is 0.41 s⁻¹. Also, in data set [7], the Km was 1500 µM and the kcat was 0.71 s⁻¹.

B1: VPARP (Homo sapiens) (protein)
chain: T2 sequence (Q9UKK3 369-573 limits assumed)
notes: The plasmid with the catalytic domain of VPARP, pET28b-p193cat; made in house; host or cells: E. coli Rosetta
Regarding B1, in data set [8], the Km turned out to be 46 µM and the Vmax turned out to be 2.03e-06 µmol/min/mg.
